# In patent US20190105369A1, “CD31SHED AGONISTS FOR USE IN THE PREVENTION AND/OR TREATMENT OF REPERFUSION INJURY” (INSTITUT NATIONAL DE LA SANTE ET DE LA RECHERCHE MEDICAL …, priority 2016, published 2019):
# “Also recorded” adds a separate entry of the source. Non-standard residues stand in square brackets, D forms with d. No end group written: not given here.
# Columns and labels:
# [1] = test system: apolipoprotein E knockout mice; assay: Model of myocardial ischemia-reperfusion (coronary artery ligation 45 min, reperfusion 24 h); type: in vivo
# Protocol: FIG. 2: Effect of P8RI (10 mg/Kg P8RI by subcutaneous injection, 2 minutes prior to reperfusion) on the area at risk and size of myocardial infarction in apolipoprotein E knockout mice (female, 18 week-old) subjected to 45 minutes of ischemia by ligation of the coronary artery, followed by 24 hours of reperfusion. […] P8RI: mice receiving P8RI (n=5); Control: mice receiving a similar volume of vehicle (PBS) without P8RI (n=5). T-Test.
# In order to reproduce the ischemia-reperfusion injury in the setting of coronary atherosclerosis (as it occurs in patients) were used 18 week-old female apolipoprotein E knockout mice (N=12/group) which typically develop coronary atherosclerosis by the age of 16 week (Caligiuri et al., Atherosclerosis. 1999 August;145(2):301-8). Mice were subjected to surgical ligation of the left main coronary artery, according to the method described by Michael et al. (Am J Physiol. 1995 December;269(6 Pt 2):H2147-54). After 43 minutes of ischemia, the mice received either P8RI (10 mg/kg) or the vehicle (PBS) by subcutaneous injection and 2 minutes later the ischemic area was reperfused by reopening of the ligated coronary artery. The next day, the mice were re-anesthetized, the chest reopened and the coronary ligature re-tied; the coronary tree was then rinsed with 2 ml of PBS pushed in the coronary tree through retrograde cannulation of the left carotid artery and the non-ischemic area stained by the injection of 50 μl of evan's blue (3% in PBS) in the same cannula. The heart was then quickly removed from the chest and immersed in a saturated KCl solution (to stop the heart in diastole) and rinsed in PBS. […] Each slice was photographed and the area at risk (AAR, negatively stained by the evan's blue) and the necrotic area (MI, negatively stained in red by the TTC solution) were then measured by computer-assisted image analysis.
# The AAR, expressed as % of the left ventricle (LV) surface and the necrotic area (MI, expressed as percentage of the AAR and of the LV) were calculated on each slice. The data shown in FIG. 2 are expressed as mean±SEM.
# [2] = test system: Rats; assay: Model of mesenteric ischemia-reperfusion (mesenteric artery clamped 30 minutes, reperfusion 4 hours); type: in vivo
# Protocol: Rats are anesthetized by urethane I.P. A catheter is introduced in the right jugular vein for venous sampling, treatment administration, and solute perfusion (NaCl 0.9%, 10 μl/H/g b.w.) during all the experimental period. A catheter is introduced in the left internal carotid artery for arterial blood pressure monitoring and another one in the bladder for urine collection. […] The aortic ostium of the mesenteric artery is controlled. The intravenous administration of the peptide is initiated 5 minutes before clamping the mesenteric artery and after blood sampling (T0). Then, the mesenteric artery is clamped (total occlusion) for 30 minutes creating mesenteric ischemia. Blood sampling is performed at the end of the mesenteric ischemia period (T0.5). The mesenteric artery is then unclamped and reperfusion is follow-up to 4 hours. New blood samplings are performed each hour (T1.5, 2.5, 3.5, 4.5). The animal is sacrificed at the end of the experimental period after a last blood sampling. Urines are collected and diuresis measured each hour. At sacrifice, the ischemic intestine is sampled. One fragment is extruded in order to measure hemoglobin content. The other one is fixed in paraformaldehyde for histology. Several intermediary biological criteria are use in order to characterize the ischemia-reperfusion injury and to evaluate the beneficial effect of the CD31^shed agonist peptide: plasma and urinary free DNA (Picogreen fluorescent intercalant, Invitrogen), from neutrophil origin, traducing neutrophil activation and death, intra-intestinal lumen hemoglobin content (acid formic reaction, Calbiochem kit), traducing epithelial injury, Myeloperoxidase (MPO) content in the intestinal mucosa, reflecting the local accumulation and activation of neutrophils, plasma soluble p-selectin and MMP9 content, reflecting systemic neutrophil activation, as p-selectin is released by a cleavage from the surface of activated neutrophils (and platelets) and MMP9 is contained in the azurofilic granules of the neutrophils and is released early upon neutrophil degranulation. Finally, the extent of mucin film protection was evaluated by histology of the intestinal wall (Alcian blue staining).
# [3] = test system: human platelet; details: cited from earlier work
# [4] = test system: thrombin generation; details: cited from earlier work
# [5] = 10 mg/kg subcutaneous, 2 minutes prior to reperfusion, 24 hours of reperfusion, vs vehicle (PBS)
# [6] = intravenous perfusion, vs controls
# [7] = mesenteric artery transient occlusion model
substance,measurement,setting,value
"kwpalfvr ([dK][dW][dP][dA][dL][dF][dV][dR]) [Peptide P8RI, CD31shed agonist]",size of myocardial infarction (MI) as percentage of the area at risk (AAR),[1]; [5],significantly effective in reducing
same,size of myocardial infarction (MI) as percentage of the left ventricle (LV),[1]; [5],significantly effective in reducing
same,size of the necrotic areas,"[1]; administration during the ischemia-reperfusion period, vs non-treated control mouse",strongly decrease
same,hemoglobin content in the intestine lumen,"[2]; intravenous perfusion, at sacrifice, controls 317.1±93.27",129.4±47.39 μg/mg prot
same,"epithelial villosity abrasion, epithelium desquamation","[2]; intravenous perfusion, histology",protect
same,"mucin / mucus film integrity (histology of the intestinal wall, Alcian blue staining)","[2]; intravenous perfusion, vs control rats, data not shown",histological conservation of mucus; also recorded: preserved most of the mucin film
same,"free hemoglobin within the intestinal lumen (ratio, normalized by total protein content)",[2]; [6],decreased
same,"free myeloperoxidase MPO in the intestinal mucosa (direct ELISA, optical density)",[2]; [6],decreased; also recorded: significantly decrease
same,"plasma MMP9, cumulative concentration (area under the curve of the different time points)",[2]; [6],decreased; also recorded: significantly decrease
same,free DNA in the plasma over time,"[2]; intravenous, initiated 5 minutes before clamping, vs control rats",arrest of the progressive increase; also recorded: remains low and similar to sham-operated rats; also recorded: significantly reduces the progressive increase
same,urinary free DNA,"[2]; intravenous, initiated 5 minutes before clamping, vs controls",reduced; also recorded: significantly reduces the progressive increase
same,LPS secretion in blood,[2]; [7],decrease
same,bacterial translocation,[2]; [7],prevented
same,intestinal necrosis,[2]; [7],prevented
same,human platelet aggregation,[3],reduces
same,thrombin generation,[4],reduces
